Results published in patent US7563895B2, “Quinoxaline compounds” (Janssen Pharmaceutica, N.V., priority 2003, dated 2009).

Biological target: T1, CCK2 receptor (Homo sapiens, UniProt P32239)
T1 construct: Membranes were prepared from the HEKZFP cells after induction; endogenous in cells; host or cells: HEKZFP cells (T-REx-293 with tet-inducible ZFP-VP16 specific for the CCK2R gene), doxycycline-induced; membrane preparation
T1 sequence (P32239 1-447): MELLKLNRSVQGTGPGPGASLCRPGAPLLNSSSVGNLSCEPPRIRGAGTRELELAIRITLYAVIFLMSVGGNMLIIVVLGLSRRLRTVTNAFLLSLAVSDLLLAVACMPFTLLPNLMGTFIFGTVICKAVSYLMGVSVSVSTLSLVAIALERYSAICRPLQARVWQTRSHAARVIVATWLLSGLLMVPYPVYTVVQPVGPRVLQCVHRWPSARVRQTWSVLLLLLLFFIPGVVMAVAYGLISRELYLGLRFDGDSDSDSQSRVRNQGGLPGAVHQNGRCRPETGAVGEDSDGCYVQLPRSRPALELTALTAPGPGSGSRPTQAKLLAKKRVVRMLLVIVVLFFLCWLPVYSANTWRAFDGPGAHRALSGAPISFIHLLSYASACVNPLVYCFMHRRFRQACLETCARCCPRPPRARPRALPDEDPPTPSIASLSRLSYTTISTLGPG
Experiment: CCK2 receptor radioligand binding assay ([125I]-BH-CCK-8S, HEKZFP cell membranes)
Conditions: competition with [125I]-BH-CCK-8S, membranes of induced HEKZFP cells, 60 min at 21±3° C., Cheng-Prusoff
Description: Zinc Finger Proteins (ZFP) specific for the CCK2R gene were identified by Sangamo Biosciences. The ZFP domain was fused with the herpes simplex virus VP16 activation domain, and the fusion protein was subsequently cloned into the pcDNA3 mammalian expression vector (Invitrogen, San Diego, Calif.). […] After 2 weeks of selection in culture medium containing […] Zeocin (Invitrogen), sixty drug-resistant stable clones were isolated and analyzed for ZFP expression as well as CCK2R induction upon addition of doxycycline to the culture medium.
HEKZFP cells were grown in DMEM supplemented with L-glutamine (2 mM), penicillin (50 units/mL) and streptomycin (50 μg/mL) and 10% FBS (v/v).
Membranes were prepared from the HEKZFP cells after induction. […] The thawed pellets were homogenized using a Polytron PT-10 (7×1 s). The homogenates were centrifuged for 5 min at 1500 rpm (600×g), and the resulting pellets were discarded. The supernatants were re-centrifuged in order to collect the receptor-membrane pellets (25 min 15,000 rpm; 39,800×g), which were re-suspended in buffer A.
The assay preparation was incubated for 1 h at 21±3° C., and then the assay was terminated by rapid filtration of the preparation under reduced pressure. The loaded filters were washed three times using undiluted PBS (100 μL), and then 100 μL of scintillation fluid was added to the filter plate. Bound radioactivity was determined using a Topcount (Packard BioScience, Meriden, Conn.) with a count time of 1 min. […] To validate the radioligand concentration and incubation time for the assay, saturation and kinetic binding studies were also conducted (see M. F. Morton, The Pharmacological Characterization of Cholecystokinin Receptors in the Human Gastrointestinal Tract. PhD Thesis, University of London, 2000). […] The assay was then terminated according to the procedure outlined above.
The pKi values were determined using the equation of Y.-C.
To circumvent problems associated with computer-assisted data analysis of compounds with low affinity, the data obtained in the current study were weighed according to a method described by Morton. In brief, 100% and 0% specific binding were defined independently using total binding and binding obtained in the presence of a high concentration of the reference antagonist, 2-NAP.

Row | Compound | Ki [µM] | pKi
1 | C[C@@H](NC(=O)c1ccc(Br)cc1NS(=O)(=O)c1cccc2nccnc12)c1ccc(Cl)cc1Cl [Example 1, (R)-4-Bromo-N-[1-(2,4-dichlorophenyl)-ethyl]-2-(quinoxaline-5-sulfonylamino)-benzamide] | 0.00794 | –
2 | C[C@@H](NC(=O)c1ccc(Cl)cc1NS(=O)(=O)c1cccc2nccnc12)c1ccc(F)cc1F [Example 3, (R)-4-Chloro-N-[1-(2,4-difluorophenyl)-ethyl]-2-(quinoxaline-5-sulfonylamino)-benzamide] | 0.0126 | –
3 | O=C(c1ccc(I)cc1NS(=O)(=O)c1cccc2nccnc12)N1CCCCC1 [Example 4, Quinoxaline-5-sulfonic acid [5-iodo-2-(piperidine-1-carbonyl)-phenyl]-amide] | 0.0251 | –
4 | C[C@@H](NC(=O)c1cc(Cl)c(Cl)cc1NS(=O)(=O)c1cccc2nccnc12)c1ccc(F)cc1F [Example 5, (R)-4,5-Dichloro-N-[1-(2,4-difluorophenyl)ethyl]-2-(quinoxaline-5-sulfonylamino)-benzamide] | 0.0158 | –
5 | O=C(c1ccc(I)cc1NS(=O)(=O)c1cccc2nccnc12)N1CCOCC1 [Example 6, Quinoxaline-5-sulfonic acid [5-iodo-2-(morpholine-4-carbonyl)-phenyl]-amide] | – | 7.5
6 | C[C@@H](NC(=O)c1ccc(Cl)cc1NS(=O)(=O)c1cccc2nccnc12)c1ccc(F)cc1 [Example 7, (R)-4-Chloro-N-[1-(4-fluorophenyl)-ethyl]-2-(quinoxaline-5-sulfonylamino)-benzamide] | 0.0316 | –
7 | C[C@@H](NC(=O)c1ccc(Br)cc1NS(=O)(=O)c1cccc2nccnc12)c1ccc(F)cc1 [Example 8, (R)-4-Bromo-N-[1-(4-fluorophenyl)-ethyl]-2-(quinoxaline-5-sulfonylamino)-benzamide] | 0.0398 | –
8 | C[C@H](NC(=O)c1ccc(Cl)cc1NS(=O)(=O)c1cccc2nccnc12)c1ccc(Cl)cc1Cl [Example 9, (S)-4-Chloro-N-[1-(2,4-dichlorophenyl)ethyl]-2-(quinoxaline-5-sulfonylamino)-benzamide] | 0.0398 | –
9 | O=C(c1ccc(Br)cc1NS(=O)(=O)c1cccc2nccnc12)N1CCCc2ccccc2C1 [Example 10, Quinoxaline-5-sulfonic acid [5-bromo-2-(1,3,4,5-tetrahydrobenzo[c]azepine-2-carbonyl)phenyl]-amide] | 0.0501 | –
10 | O=C(c1ccc(Br)cc1NS(=O)(=O)c1cccc2nccnc12)N1CCOCC1 [Example 11, (R)-Quinoxaline-5-sulfonic acid [5-bromo-2-(morpholine-4-carbonyl)-phenyl]-amide] | – | 7.2
11 | C[C@@H]1COCCN1C(=O)c1ccc(Br)cc1NS(=O)(=O)c1cccc2nccnc12 [Example 12, (R)-Quinoxaline-5-sulfonic acid [5-bromo-2-(3-methylmorpholine-4-carbonyl)-phenyl]-amide] | 0.0794 | –
12 | O=C(c1ccc(Cl)cc1NS(=O)(=O)c1cccc2nccnc12)N1CCOCC1 [Example 14, (R)-Quinoxaline-5-sulfonic acid [5-chloro-2-(morpholine-4-carbonyl)phenyl]-amide] | – | 6.5
13 | C[C@@H](NC(=O)c1ccc(I)cc1NS(=O)(=O)c1cccc2nccnc12)c1ccc(F)cc1F [Example 15, (R)—N-[1-(2,4-Difluorophenyl)-ethyl]-4-iodo-2-(quinoxaline-5-sulfonylamino)-benzamide] | 0.0126 | –
14 | O=C(NCc1ccc(F)cc1Cl)c1ccc(Br)cc1NS(=O)(=O)c1cccc2nccnc12 [Example 16, 4-Bromo-N-(2-chloro-4-fluoro-benzyl)-2-(quinoxaline-5-sulfonylamino)-benzamide] | 0.0398 | –
15 | O=C(NCc1ccc(F)cc1F)c1ccc(Br)cc1NS(=O)(=O)c1cccc2nccnc12 [Example 17, 4-Bromo-N-(2,4-difluoro-benzyl)-2-(quinoxaline-5-sulfonylamino)-benzamide] | 0.0631 | –
16 | O=C(c1ccc(I)cc1NS(=O)(=O)c1cccc2nccnc12)N1CCCCCC1 [Example 18, Quinoxaline-5-sulfonic acid [2-(azepane-1-carbonyl)-5-iodophenyl]-amide] | 0.0631 | –
17 | C[C@@H]1COCCN1C(=O)c1ccc(I)cc1NS(=O)(=O)c1cccc2nccnc12 [Example 19, (R)-Quinoxaline-5-sulfonic acid [5-iodo-2-(3-methylmorpholine-4-carbonyl)-phenyl]-amide] | 0.0794 | –
18 | O=C(c1cc(Cl)c(Cl)cc1NS(=O)(=O)c1cccc2nccnc12)N1CCOCC1 [Example 20, Quinoxaline-5-sulfonic acid [4,5-dichloro-2-(morpholine-4-carbonyl)-phenyl]-amide] | 0.0794 | –
19 | O=C(c1ccc(Br)cc1NS(=O)(=O)c1cccc2nccnc12)N1CCCCCC1 [Example 21, Quinoxaline-5-sulfonic acid [2-(azepane-1-carbonyl)-5-bromophenyl]-amide] | 0.126 | –
20 | O=C(c1ccc(Cl)cc1NS(=O)(=O)c1cccc2nccnc12)N1CCOc2ccccc2C1 [Example 22, Quinoxaline-5-sulfonic acid [5-chloro-2-(2,3-dihydro-5H-benzo[f][1,4]oxazepine-4-carbonyl)-phenyl]-amide] | 0.158 | –
21 | C[C@H]1COCCN1C(=O)c1ccc(I)cc1NS(=O)(=O)c1cccc2nccnc12 [Example 23, (S)-Quinoxaline-5-sulfonic acid [5-iodo-2-(3-methylmorpholine-4-carbonyl)-phenyl]-amide] | 0.251 | –
22 | O=C(c1ccc(Br)cc1NS(=O)(=O)c1cccc2nccnc12)N1CCCc2cc(F)ccc2C1 [Example 24, Quinoxaline-5-sulfonic acid [5-bromo-2-(7-fluoro-1,3,4,5-tetrahydro-benzo[c]azepine-2-carbonyl)-phenyl]-amide] | 0.316 | –
23 | C[C@@H]1COC[C@H](C)N1C(=O)c1ccc(I)cc1NS(=O)(=O)c1cccc2nccnc12 [Example 25, (R,S)-Quinoxaline-5-sulfonic acid [2-(3,5-dimethylmorpholine-4-carbonyl)-5-iodophenyl]-amide] | 0.316 | –
24 | O=C(c1ccc(I)cc1NS(=O)(=O)c1cccc2nccnc12)N1CCC(O)CC1 [Example 26, Quinoxaline-5-sulfonic acid [2-(4-hydroxy-piperidine-1-carbonyl)-5-iodo-phenyl]-amide] | 0.316 | –
25 | C[C@@H]1COC[C@H](C)N1C(=O)c1ccc(Br)cc1NS(=O)(=O)c1cccc2nccnc12 [Example 27, meso-Quinoxaline-5-sulfonic acid [2-(3,5-dimethylmorpholine-4-carbonyl)-5-bromophenyl]-amide] | 0.316 | –
26 | C[C@H]1COCCN1C(=O)c1ccc(Br)cc1NS(=O)(=O)c1cccc2nccnc12 [Example 28, (S)-Quinoxaline-5-sulfonic acid [5-bromo-2-(3-methylmorpholine-4-carbonyl)-phenyl]-amide] | 0.398 | –
27 | O=C(N[C@@H](c1ccc(F)cc1F)C(F)(F)F)c1ccc(Cl)cc1NS(=O)(=O)c1cccc2nccnc12 [Example 29, (S)-4-Chloro-N-[1-(2,4-difluoro-phenyl)-2,2,2-trifluoroethyl]-2-(quinoxaline-5-sulfonylamino)-benzamide] | 0.501 | –
28 | O=C(c1ccc(Br)cc1NS(=O)(=O)c1cccc2nccnc12)N1CCCCC1 [Example 32, Quinoxaline-5-sulfonic acid [5-bromo-2-(piperidine-1-carbonyl)-phenyl]-amide] | – | 7.2
